Experimental findings from patent publication US12503475B2 (Centessa Pharmaceuticals (UK) Limited, priority 2020, dated 2025) are described below.

Where “and” joins values, the source holds several entries; their conditions need not be identical. Identical values can stand only once.

The assay deals with T1, human orexin type 2 receptor (hOX2R) (Homo sapiens, UniProt O43614).
T1 construct: expressed in transfected cells
T1 sequence (O43614 1-444): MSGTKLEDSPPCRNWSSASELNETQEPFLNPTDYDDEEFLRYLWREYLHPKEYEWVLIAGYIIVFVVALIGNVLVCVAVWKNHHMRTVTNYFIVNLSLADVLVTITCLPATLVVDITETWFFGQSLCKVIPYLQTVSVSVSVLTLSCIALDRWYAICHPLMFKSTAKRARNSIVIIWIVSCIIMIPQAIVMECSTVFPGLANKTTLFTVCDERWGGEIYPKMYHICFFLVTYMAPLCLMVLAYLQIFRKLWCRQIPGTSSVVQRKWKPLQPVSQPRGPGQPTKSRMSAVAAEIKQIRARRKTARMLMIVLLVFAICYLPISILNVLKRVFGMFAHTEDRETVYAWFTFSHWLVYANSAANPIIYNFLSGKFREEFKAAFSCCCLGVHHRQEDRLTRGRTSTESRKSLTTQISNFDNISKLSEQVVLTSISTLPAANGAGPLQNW
The experiment in a line: Measurement of orexin type 2 receptor agonist activity (FLIPR calcium fluorescence). The format is cell-based. The conditions noted are these: CHO cells expressing hOX2R, FLIPR calcium fluorescence; for EC50: read-out: hOx2 pEC50 (converted); for Emax: CHO, read-out: hOx2 Emax (%). The gist of the method:
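Agonism was read as fluorescence in cells stably expressing human OX2R. E. is the response at 10 μM relative to orexin A as full agonist (100%).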

On to `CCNC(=O)N1CC2(CC2)[C@H](NS(C)(=O)=O)[C@@H]1Cc1cccc(-c2ccccc2)c1` (racemic) [Compound 303, 6-([1,1′-biphenyl]-3-ylmethyl)-N-ethyl-7-(methylsulfonamido)-5-azaspiro[2.4]heptane-5-carboxamide], for which the EC50 is 1 to 10 nM and the maximal response (Emax) is 90 to 100%.

In the case of `O=C([C@H]1C[C@@H](F)C1)N1CC2(CC2)[C@H](NS(=O)(=O)CF)[C@@H]1Cc1cccc(-c2ccccc2)c1F` [Compound 189], the EC50 was 1 to 10 nM and the maximum response (Emax) was in the range of 90 to 100%.

In the case of `COC[C@@H](O)C(=O)N1CC2(CC2)[C@H](NS(C)(=O)=O)[C@@H]1Cc1cccc(-c2ccccc2)c1` [Compound 63, N-((6S,7S)-6-([1,1′-biphenyl]-3-ylmethyl)-5-((R)-2-hydroxy-3-methoxypropanoyl)-5-azaspiro[2.4]heptan-7-yl)methanesulfonamide], the EC50 was 10 to 100 nM and the Emax is 80 to 90%.

Turning to `CCS(=O)(=O)N[C@@H]1[C@H](Cc2cccc(-c3ccccc3)c2F)N(C(=O)[C@H](O)CF)CC12CC2` [Compound 178], the EC50 is 1 to 10 nM and the Emax was 90 to 100%.

Take `COC[C@H](C)NC(=O)N1CC2(CC2)[C@H](NS(C)(=O)=O)[C@@H]1Cc1cccc(-c2ccccc2)c1F` [Compound 328, (6S,7S)-6-((2-fluoro-[1,1′-biphenyl]-3-yl)methyl)-N-((S)-1-methoxypropan-2-yl)-7-(methylsulfonamido)-5-azaspiro[2.4]heptane-5-carboxamide]: the EC50 is 1 to 10 nM and the Emax was in the range of 90 to 100%.

`C[C@H](CF)NC(=O)N1CC2(CC2)[C@H](NS(=O)(=O)CF)[C@@H]1Cc1cccc(-c2ccccc2)c1F` [Compound 158]: the EC50 was 0.0794 to 1 nM and the Emax fell in the range of 90 to 100%.

In the case of `C[C@H](F)C(=O)N1CC2(CC2)[C@H](NS(=O)(=O)CF)[C@@H]1Cc1cccc(-c2cc(F)cc(F)c2)c1F` [Compound 232, 1-fluoro-N-((6S,7S)-5-((S)-2-fluoropropanoyl)-6-((2,3′,5′-trifluoro-[1,1′-biphenyl]-3-yl)methyl)-5-azaspiro[2.4]heptan-7-yl)methanesulfonamide], the EC50 is 0.0794 to 1 nM and the Emax was 90 to 100%.

Turning to `O=C([C@H]1CCO1)N1CC2(CC2)[C@H](NS(=O)(=O)C2CC2)[C@@H]1Cc1cc(F)cc(-c2cc(F)cc(F)c2)c1F` [Compound 405, N-((6S,7S)-5-((R)-oxetane-2-carbonyl)-6-((2,3′,5,5′-tetrafluoro-[1,1′-biphenyl]-3-yl)methyl)-5-azaspiro[2.4]heptan-7-yl)cyclopropanesulfonamide], the EC50 is 1 to 10 nM and the Emax lay in the range of 90 to 100%.

With `O=C(NCC(F)F)N1CC2(CC2)[C@H](NS(=O)(=O)C(F)F)[C@@H]1Cc1cccc(-c2cc(F)cc(F)c2)c1F` [Compound 382, (6S,7S)-N-(2,2-difluoroethyl)-7-((difluoromethyl)sulfonamido)-6-((2,3′,5′-trifluoro-[1,1′-biphenyl]-3-yl)methyl)-5-azaspiro[2.4]heptane-5-carboxamide], the EC50 was 0.0794 to 1 nM and the Emax lay within 90 to 100%.

In the case of `CN(C)S(=O)(=O)N[C@@H]1[C@H](Cc2cccc(-c3ccccc3)c2)N(C(=O)[C@H]2CCO2)CC12CC2` [Compound 95, N-((6S,7S)-6-([1,1′-biphenyl]-3-ylmethyl)-5-((R)-oxetane-2-carbonyl)-5-azaspiro[2.4]heptan-7-yl)-N,N-dimethylsulfuric diamide], the EC50 was 1 to 10 nM and the Emax lay within 90 to 100%.

Regarding `COc1c(C[C@H]2[C@@H](NS(C)(=O)=O)C3(CC3)CN2C(=O)C2CC(F)C2)cccc1-c1ccccc1` (stereo partly drawn) [Compound 340, N-((6S,7S)-5-(3-fluorocyclobutane-1-carbonyl)-6-((2-methoxy-[1,1′-biphenyl]-3-yl)methyl)-5-azaspiro[2.4]heptan-7-yl)methanesulfonamide], the “hOx2 Emax (%)” value was “D (Emax ranging between 60 and 70)”; the “hOx2 pEC50” value is “*** (pEC50 ranging between 7.0 and 8.0)”.

Consider `COC[C@H](F)C(=O)N1CC2(CC2)[C@H](NS(=O)(=O)CF)[C@@H]1Cc1cccc(-c2ccccc2)c1F` [Compound 224, 1-fluoro-N-((6S,7S)-5-((S)-2-fluoro-3-methoxypropanoyl)-6-((2-fluoro-[1,1′-biphenyl]-3-yl)methyl)-5-azaspiro[2.4]heptan-7-yl)methanesulfonamide], for which the EC50 was 1 to 10 nM and the Emax lay in the range of 90 to 100%.

On to `COC1CN(C(=O)N2CC3(CC3)C(NS(C)(=O)=O)C2Cc2cccc(-c3ccccc3)c2F)C1` (racemic) [Compound 46, N-(6-((2-fluoro-[1,1′-biphenyl]-3-yl)methyl)-5-(3-methoxyazetidine-1-carbonyl)-5-azaspiro[2.4]heptan-7-yl)methanesulfonamide], for which the EC50 is 10 to 100 nM and the Emax is 90 to 100%.

With `CC(C)(O)C(=O)N1CC2(CC2)[C@H](NS(C)(=O)=O)[C@@H]1Cc1cccc(-c2ccccc2F)c1F` [Compound 361, N-((6S,7S)-6-((2,2'-difluoro-[1,1′-biphenyl]-3-yl)methyl)-5-(2-hydroxy-2-methylpropanoyl)-5-azaspiro[2.4]heptan-7-yl)methanesulfonamide], the EC50 is 10 to 100 nM and the maximal response (Emax) was in the range of 80 to 90%.

In the case of `O=C([C@H]1CCO1)N1CC2(CC2)[C@H](NS(=O)(=O)CF)[C@@H]1Cc1cccc(-c2ccccc2)c1` [Compound 48, N-((6S,7S)-6-([1,1′-biphenyl]-3-ylmethyl)-5-((R)-oxetane-2-carbonyl)-5-azaspiro[2.4]heptan-7-yl)-1-fluoromethanesulfonamide], the Emax lay within 80 to 90%.

Take `CS(=O)(=O)NC1C(Cc2cccc(-c3ccccc3)c2)N(C(=O)N2CC(F)C2)CC12CC2` (racemic) [Compound 11, N-(6-([1,1′-biphenyl]-3-ylmethyl)-5-(3-fluoroazetidine-1-carbonyl)-5-azaspiro[2.4]heptan-7-yl)methanesulfonamide]: the EC50 was 10 to 100 nM and the Emax fell in the range of 90 to 100%.

As to `CC[C@@H](O)C(=O)N1CC2(CC2)C(NS(C)(=O)=O)C1Cc1cccc(-c2ccccc2)c1` (mixture of isomers) [Compound 37, N-(6-([1,1′-biphenyl]-3-ylmethyl)-5-((R)-2-hydroxybutanoyl)-5-azaspiro[2.4]heptan-7-yl)methanesulfonamide], the EC50 is 10 to 100 nM and the Emax was 90 to 100%.

As for `CS(=O)(=O)N[C@@H]1[C@H](Cc2cccc(-c3cccc(F)c3)c2F)N(C(=O)N2CCC2)CC12CC2` [Compound 27, N-((6S,7S)-5-(azetidine-1-carbonyl)-6-((2,3′-difluoro-[1,1′-biphenyl]-3-yl)methyl)-5-azaspiro[2.4]heptan-7-yl)methanesulfonamide], the EC50 was 1 to 10 nM and 0.0794 to 1 nM; the Emax lay in the range of 90 to 100%.

`COC[C@H](O)C(=O)N1CC2(CC2)[C@H](NS(=O)(=O)C(F)F)[C@@H]1Cc1cccc(-c2ccccc2)c1F` [Compound 183, 1,1-difluoro-N-((6S,7S)-6-((2-fluoro-[1,1′-biphenyl]-3-yl)methyl)-5-((S)-2-hydroxy-3-methoxypropanoyl)-5-azaspiro[2.4]heptan-7-yl)methanesulfonamide]: the EC50 was 1 to 10 nM and the maximum response (Emax) was in the range of 90 to 100%.

With `CN(C)C(=O)N1CC2(CC2)[C@H](NS(C)(=O)=O)[C@@H]1Cc1cc(F)cc(-c2ccccc2)c1F` [Compound 354, (6S,7S)-6-((2,5-difluoro-[1,1′-biphenyl]-3-yl)methyl)-N,N-dimethyl-7-(methylsulfonamido)-5-azaspiro[2.4]heptane-5-carboxamide], the EC50 is 10 to 100 nM and the maximal effect (Emax) was in the range of 90 to 100%.

As for `COC1(CNC(=O)N2CC3(CC3)[C@H](NS(=O)(=O)CF)[C@@H]2Cc2cccc(-c3ccccc3)c2F)CC1` [Compound 370, (6S,7S)-6-((2-fluoro-[1,1′-biphenyl]-3-yl)methyl)-7-((fluoromethyl)sulfonamido)-N-((1-methoxycyclopropyl)methyl)-5-azaspiro[2.4]heptane-5-carboxamide], the EC50 was 0.0794 to 1 nM and the Emax lay within 90 to 100%.

On to `N#CC1(C(=O)N2CC3(CC3)[C@H](NS(=O)(=O)CF)[C@@H]2Cc2cccc(-c3cc(F)cc(F)c3)c2F)CCC1` [Compound 231, N-((6S,7S)-5-(1-cyanocyclobutane-1-carbonyl)-6-((2,3′,5′-trifluoro-[1,1′-biphenyl]-3-yl)methyl)-5-azaspiro[2.4]heptan-7-yl)-1-fluoromethanesulfonamide], for which the EC50 was 1 to 10 nM and the Emax is 90 to 100%.

Take `C[C@@H](C#N)C(=O)N1CC2(CC2)[C@H](NS(C)(=O)=O)[C@@H]1Cc1cccc(-c2ccccc2)c1` [Compound 309, N-((6S,7S)-6-([1,1′-biphenyl]-3-ylmethyl)-5-((S)-2-cyanopropanoyl)-5-azaspiro[2.4]heptan-7-yl)methanesulfonamide]: the EC50 was 10 to 100 nM and the Emax is 90 to 100%.

In the case of `O=C([C@H]1CCO1)N1CC2(CC2)[C@H](NS(=O)(=O)C(F)F)[C@@H]1Cc1cccc(-c2cccc(F)c2F)c1F` [Compound 172], the EC50 is 1 to 10 nM and the Emax lay in the range of 90 to 100%.
